Like-named read-outs stand apart in the source and are kept apart here.
Experiments:
[1] = molecular target: histaminergic H1 receptor (Homo sapiens, UniProt P35367); experiment: Binding assay H1 (h), [3H]pyrilamine, HEK-293 cells; design: expressed in transfected cells; host or cells: HEK-293 cells; settings: read-out: H1 [%]
In short: (§1)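 At 1×10^−6 M, compounds were assessed for their effect on specific radioligand binding, computed as total less nonspecific binding (excess unlabelled ligand present).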

[2] = molecular target: T1, serotonine transporter (SERT) receptor (Homo sapiens, UniProt P31645); experiment: Binding assay SERT (h), [3H]imipramine, CHO cells; settings: read-out: SERT [%]
T1 construct: expressed in transfected cells; host or cells: CHO cells
T1 sequence (P31645 whole entry): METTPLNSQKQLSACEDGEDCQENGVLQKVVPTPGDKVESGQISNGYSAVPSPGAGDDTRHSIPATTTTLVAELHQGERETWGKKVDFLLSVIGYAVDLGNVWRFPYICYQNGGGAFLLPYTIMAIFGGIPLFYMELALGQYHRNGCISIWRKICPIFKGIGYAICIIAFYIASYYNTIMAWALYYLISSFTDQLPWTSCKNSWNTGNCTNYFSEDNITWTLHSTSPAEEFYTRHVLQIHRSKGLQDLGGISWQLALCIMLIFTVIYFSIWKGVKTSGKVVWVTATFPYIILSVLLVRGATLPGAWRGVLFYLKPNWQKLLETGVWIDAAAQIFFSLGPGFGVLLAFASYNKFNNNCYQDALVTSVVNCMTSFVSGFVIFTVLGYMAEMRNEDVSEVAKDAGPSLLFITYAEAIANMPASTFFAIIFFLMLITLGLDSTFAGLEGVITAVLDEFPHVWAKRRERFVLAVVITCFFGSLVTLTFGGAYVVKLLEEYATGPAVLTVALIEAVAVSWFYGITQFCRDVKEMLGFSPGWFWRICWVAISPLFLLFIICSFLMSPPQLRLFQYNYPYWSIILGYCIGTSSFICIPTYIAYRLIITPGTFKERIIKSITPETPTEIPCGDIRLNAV
In short: as §1

[3] = molecular target: T2, serotoninergic 5-HT1A receptor (Homo sapiens, UniProt P08908); experiment: Binding assay 5-HT1A (h), [3H]8-OH-DPAT, HEK-293 cells; design: expressed in transfected cells; host or cells: HEK-293 cells; settings: read-out: 5-HT1A
T2 sequence (P08908 1-422): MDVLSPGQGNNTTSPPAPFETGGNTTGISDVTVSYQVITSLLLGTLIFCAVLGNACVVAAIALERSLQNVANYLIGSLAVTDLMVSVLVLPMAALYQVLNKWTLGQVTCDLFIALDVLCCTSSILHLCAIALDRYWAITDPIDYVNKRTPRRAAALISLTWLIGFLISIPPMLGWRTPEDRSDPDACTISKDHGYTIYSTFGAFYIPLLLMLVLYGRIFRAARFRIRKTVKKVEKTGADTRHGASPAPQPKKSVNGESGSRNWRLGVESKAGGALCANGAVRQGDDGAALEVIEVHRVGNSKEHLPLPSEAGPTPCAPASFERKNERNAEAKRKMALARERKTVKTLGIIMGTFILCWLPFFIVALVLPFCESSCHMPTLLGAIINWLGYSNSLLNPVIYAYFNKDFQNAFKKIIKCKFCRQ
In short: as §1

dopaminergic D2 receptor = dopaminergic D2 receptor (Homo sapiens, UniProt P14416); experiment: Binding assay D2S (h), [3H]methyl-spiperone, HEK-293 cells; design: expressed in transfected cells; host or cells: HEK-293 cells; settings: read-out: D2 [%]
Sequence of dopaminergic D2 receptor (P14416 1-414 isoform P14416-2): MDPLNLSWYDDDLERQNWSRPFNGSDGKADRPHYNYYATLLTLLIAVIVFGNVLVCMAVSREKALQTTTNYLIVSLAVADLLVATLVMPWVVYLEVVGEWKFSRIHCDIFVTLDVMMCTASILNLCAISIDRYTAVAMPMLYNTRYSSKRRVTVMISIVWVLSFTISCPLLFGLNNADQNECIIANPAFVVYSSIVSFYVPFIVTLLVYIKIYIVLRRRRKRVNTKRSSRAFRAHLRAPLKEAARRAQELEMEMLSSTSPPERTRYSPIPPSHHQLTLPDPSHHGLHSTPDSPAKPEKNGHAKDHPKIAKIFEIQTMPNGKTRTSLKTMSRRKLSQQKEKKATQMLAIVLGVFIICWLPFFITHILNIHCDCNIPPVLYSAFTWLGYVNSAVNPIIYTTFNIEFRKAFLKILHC
In short: as §1

[4] = molecular target: T3, serotoninergic receptor 5-HT2C (Homo sapiens, UniProt P28335); experiment: Binding assay 5-HT2C (h), [3H]mesulergine, HEK-293 cells; settings: read-out: 5-HT2C [%]
T3 construct: expressed in transfected cells; host or cells: HEK-293 cells
T3 sequence (P28335 33-458): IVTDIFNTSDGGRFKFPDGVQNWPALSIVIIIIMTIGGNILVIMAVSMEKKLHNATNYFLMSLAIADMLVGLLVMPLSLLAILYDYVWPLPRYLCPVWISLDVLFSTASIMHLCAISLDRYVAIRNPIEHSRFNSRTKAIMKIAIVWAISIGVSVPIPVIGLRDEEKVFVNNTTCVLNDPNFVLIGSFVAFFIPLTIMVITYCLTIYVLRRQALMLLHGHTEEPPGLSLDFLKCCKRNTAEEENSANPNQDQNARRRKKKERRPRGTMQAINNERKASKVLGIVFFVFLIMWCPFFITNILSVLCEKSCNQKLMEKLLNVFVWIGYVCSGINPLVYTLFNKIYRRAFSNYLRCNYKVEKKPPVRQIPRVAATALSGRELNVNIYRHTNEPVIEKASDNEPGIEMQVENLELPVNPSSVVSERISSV
In short: as §1

hERG potassium channels [5] = molecular target: T4, hERG potassium channels (Homo sapiens, UniProt Q12809); experiment: hERG potassium channel block, electrophysiology (IonWorks Quattro), CHO cells; settings: % block of hERG current, cloned hERG channels in CHO cells, IonWorks Quattro
T4 sequence (Q12809 whole entry): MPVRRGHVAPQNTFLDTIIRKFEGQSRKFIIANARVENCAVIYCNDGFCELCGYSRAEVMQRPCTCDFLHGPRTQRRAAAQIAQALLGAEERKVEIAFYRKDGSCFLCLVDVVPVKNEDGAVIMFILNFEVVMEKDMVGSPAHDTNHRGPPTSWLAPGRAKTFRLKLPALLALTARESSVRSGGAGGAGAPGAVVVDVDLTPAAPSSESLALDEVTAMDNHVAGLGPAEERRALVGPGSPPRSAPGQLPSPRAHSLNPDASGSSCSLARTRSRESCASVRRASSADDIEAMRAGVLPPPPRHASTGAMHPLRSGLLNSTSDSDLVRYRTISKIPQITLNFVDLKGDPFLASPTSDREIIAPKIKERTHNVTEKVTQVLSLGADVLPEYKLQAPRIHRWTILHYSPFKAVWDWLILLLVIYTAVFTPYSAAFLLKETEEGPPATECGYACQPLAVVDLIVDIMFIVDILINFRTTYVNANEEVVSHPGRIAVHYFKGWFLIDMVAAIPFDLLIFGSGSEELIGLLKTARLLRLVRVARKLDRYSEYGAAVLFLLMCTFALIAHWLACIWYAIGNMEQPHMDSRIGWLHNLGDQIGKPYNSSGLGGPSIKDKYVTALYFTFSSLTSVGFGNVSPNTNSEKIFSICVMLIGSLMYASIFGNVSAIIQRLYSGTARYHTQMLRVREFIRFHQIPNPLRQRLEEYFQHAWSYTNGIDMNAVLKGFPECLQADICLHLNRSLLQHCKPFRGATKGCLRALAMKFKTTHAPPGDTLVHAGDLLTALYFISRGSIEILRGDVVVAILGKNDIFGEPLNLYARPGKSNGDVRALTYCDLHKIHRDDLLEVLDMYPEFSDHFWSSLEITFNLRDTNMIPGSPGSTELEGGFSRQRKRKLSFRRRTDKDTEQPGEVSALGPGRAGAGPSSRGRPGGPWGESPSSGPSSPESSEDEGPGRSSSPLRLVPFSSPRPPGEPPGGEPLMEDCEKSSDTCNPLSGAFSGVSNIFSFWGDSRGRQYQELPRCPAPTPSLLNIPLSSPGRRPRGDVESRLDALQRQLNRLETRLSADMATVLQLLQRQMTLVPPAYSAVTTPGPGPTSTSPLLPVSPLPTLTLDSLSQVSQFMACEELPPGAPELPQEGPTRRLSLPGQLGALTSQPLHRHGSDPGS
Description: (§4) Ability to block hERG potassium channels was determined using the electrophysiological method and cloned hERG potassium channels (KCNH2 gene, expressed in CHO cells) as biological material. The effects were evaluated using IonWorks™ Quattro system (MDS-AT).
(§5) hERG current was elicited using a pulse pattern with fixed amplitudes (conditioning prepulse: −80 mV for 25 ms; test pulse: +40 mV for 80 ms) from a holding potential of 0 mV. hERG current was measured as a difference between the peak current at 1 ms after the test step to +40 mV and the steady-state current at the end of the step to +40 mV.
(§6) Data acquisition and analyses was performed using the IonWorks Quattro™ system operation software (version 2.0.2; Molecular Devices Corporation, Union City, Calif.). Data were corrected for leak current.

[6] = molecular target: T5, serotoninergic 5-HT6 receptor (Homo sapiens, UniProt P50406); experiment: Cellular functional assay, serotoninergic 5-HT6 receptor (agonism/antagonism); type: cell-based; settings: for inhibition at 1 µM: read-out: 5-HT6-antag. [%]
T5 sequence (P50406 whole entry): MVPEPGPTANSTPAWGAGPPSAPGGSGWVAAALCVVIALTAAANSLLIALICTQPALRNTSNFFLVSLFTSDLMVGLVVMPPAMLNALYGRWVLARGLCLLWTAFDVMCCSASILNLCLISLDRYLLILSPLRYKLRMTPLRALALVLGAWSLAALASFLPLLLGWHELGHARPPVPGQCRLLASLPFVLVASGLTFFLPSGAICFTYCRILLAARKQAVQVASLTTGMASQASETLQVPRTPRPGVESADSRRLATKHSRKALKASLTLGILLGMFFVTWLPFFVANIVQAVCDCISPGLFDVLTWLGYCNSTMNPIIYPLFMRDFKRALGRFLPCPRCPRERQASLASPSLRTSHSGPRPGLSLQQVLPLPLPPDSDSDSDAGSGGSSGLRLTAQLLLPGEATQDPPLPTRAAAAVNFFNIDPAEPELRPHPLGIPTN
Description: (§2) The compounds were tested at the concentration of 1×10^−6M.
(§3) In the Tables ag refers to agonism, and antag to antagonism).

[7] = molecular target: T5, serotoninergic 5-HT6 receptor; experiment: Binding assay 5-HT6 (h), [3H]LSD, CHO cells; design: expressed in transfected cells; host or cells: CHO cells; settings: read-out: 5-HT6
In short: as §1

dopaminergic D3 receptor = dopaminergic D3 receptor (Homo sapiens, UniProt P35462); experiment: Binding assay D3 (h), [3H]methyl-spiperone, CHO cells; design: expressed in transfected cells; host or cells: CHO cells; settings: read-out: D3 [%]
In short: as §1

adrenergic α2C receptor = molecular target: T6, adrenergic α2C receptor (Homo sapiens, UniProt P18825); experiment: Binding assay α2C (h), [3H]RX 821002, CHO cells; design: expressed in transfected cells; host or cells: CHO cells; settings: read-out: α2C [%]
T6 sequence (P18825 1-462): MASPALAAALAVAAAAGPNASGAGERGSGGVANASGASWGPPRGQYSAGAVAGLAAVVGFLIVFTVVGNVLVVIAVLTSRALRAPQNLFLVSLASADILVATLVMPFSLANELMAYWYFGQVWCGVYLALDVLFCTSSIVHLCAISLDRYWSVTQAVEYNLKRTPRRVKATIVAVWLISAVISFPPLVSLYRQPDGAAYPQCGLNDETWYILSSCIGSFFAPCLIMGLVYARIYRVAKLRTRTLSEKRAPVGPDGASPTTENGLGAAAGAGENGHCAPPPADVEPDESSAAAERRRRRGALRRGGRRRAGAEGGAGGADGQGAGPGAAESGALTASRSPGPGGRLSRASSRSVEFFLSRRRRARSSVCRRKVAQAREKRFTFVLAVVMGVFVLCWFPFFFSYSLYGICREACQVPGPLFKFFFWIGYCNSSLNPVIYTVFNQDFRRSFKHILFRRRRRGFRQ
In short: as §1

[8] = molecular target: T7, serotoninergic 5-HT7 receptor (Homo sapiens, UniProt P34969); experiment: Binding assay 5-HT7 (h), [3H]LSD, CHO cells; design: expressed in transfected cells; host or cells: CHO cells; settings: read-out: 5-HT7
T7 sequence (P34969 whole entry): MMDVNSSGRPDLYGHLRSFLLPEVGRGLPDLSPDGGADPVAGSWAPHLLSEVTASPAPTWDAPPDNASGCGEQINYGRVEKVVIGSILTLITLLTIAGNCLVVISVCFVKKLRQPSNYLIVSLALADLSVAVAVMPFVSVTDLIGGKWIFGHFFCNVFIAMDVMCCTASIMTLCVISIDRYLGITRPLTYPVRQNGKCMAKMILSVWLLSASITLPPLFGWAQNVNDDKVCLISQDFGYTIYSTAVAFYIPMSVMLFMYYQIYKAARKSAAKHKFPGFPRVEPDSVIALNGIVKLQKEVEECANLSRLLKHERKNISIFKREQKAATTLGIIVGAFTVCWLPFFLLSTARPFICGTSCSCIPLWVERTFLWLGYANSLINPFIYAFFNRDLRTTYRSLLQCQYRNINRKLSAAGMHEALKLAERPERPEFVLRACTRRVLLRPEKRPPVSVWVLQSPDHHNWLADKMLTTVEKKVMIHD
In short: as §1

[9] = molecular target: T7, serotoninergic 5-HT7 receptor; experiment: Cellular functional assay, serotoninergic 5-HT7 receptor (agonism/antagonism); type: cell-based; settings: for inhibition at 1 µM: read-out: 5-HT7-antag. [%]; for activation at 1 µM: agonist effect, percent of control specific agonist response, compounds tested at 1×10^−6M, read-out: 5-HT7-ag [%]
Description: as §2, §3

[10] = molecular target: serotoninergic 5-HT2A receptor (Homo sapiens, UniProt P28223); experiment: Binding assay 5-HT2A (h), [3H]ketanserin, HEK-293 cells; design: expressed in transfected cells; host or cells: HEK-293 cells; settings: read-out: 5-HT2A
Sequence of serotoninergic 5-HT2A receptor (P28223 whole entry): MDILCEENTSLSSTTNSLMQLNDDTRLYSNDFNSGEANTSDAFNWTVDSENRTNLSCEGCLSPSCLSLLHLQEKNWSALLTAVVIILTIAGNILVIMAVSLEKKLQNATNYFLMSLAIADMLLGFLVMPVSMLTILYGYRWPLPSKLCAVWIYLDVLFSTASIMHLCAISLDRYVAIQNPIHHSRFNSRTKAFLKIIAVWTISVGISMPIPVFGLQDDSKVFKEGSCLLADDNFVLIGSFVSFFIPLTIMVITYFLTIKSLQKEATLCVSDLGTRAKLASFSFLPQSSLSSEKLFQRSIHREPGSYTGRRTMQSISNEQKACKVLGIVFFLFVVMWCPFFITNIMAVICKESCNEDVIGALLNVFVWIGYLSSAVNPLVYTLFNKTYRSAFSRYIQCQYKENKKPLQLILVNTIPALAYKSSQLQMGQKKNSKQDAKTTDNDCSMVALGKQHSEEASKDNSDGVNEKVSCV
In short: as §1

muscarinic M3 receptor = molecular target: T8, muscarinic M3 receptor (Homo sapiens, UniProt P20309); experiment: Binding assay M3 (h), [3H]4-DAMP, CHO cells; settings: read-out: M3 [%]
T8 construct: expressed in transfected cells; host or cells: CHO cells
T8 sequence (P20309 whole entry): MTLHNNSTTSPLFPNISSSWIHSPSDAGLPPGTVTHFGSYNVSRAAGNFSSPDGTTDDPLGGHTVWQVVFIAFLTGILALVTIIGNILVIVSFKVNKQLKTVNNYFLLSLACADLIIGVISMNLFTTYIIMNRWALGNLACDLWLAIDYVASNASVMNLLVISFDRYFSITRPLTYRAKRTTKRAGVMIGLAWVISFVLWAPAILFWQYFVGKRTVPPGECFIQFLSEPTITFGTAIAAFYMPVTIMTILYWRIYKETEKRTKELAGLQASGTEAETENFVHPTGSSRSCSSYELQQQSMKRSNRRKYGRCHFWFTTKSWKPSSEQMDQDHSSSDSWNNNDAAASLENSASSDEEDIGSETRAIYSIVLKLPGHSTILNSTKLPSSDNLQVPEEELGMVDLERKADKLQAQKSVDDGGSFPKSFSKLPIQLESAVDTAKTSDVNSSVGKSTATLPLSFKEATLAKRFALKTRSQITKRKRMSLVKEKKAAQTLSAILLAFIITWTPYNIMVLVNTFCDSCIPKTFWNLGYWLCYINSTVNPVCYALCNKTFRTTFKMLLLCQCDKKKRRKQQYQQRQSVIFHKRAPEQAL
In short: as §1

adrenergic α1 receptor = experiment: Binding assay α1 (non-selective), [3H]prazosin, rat cerebral cortex; settings: percent inhibition of control specific binding; compounds tested at 1×10^−6 M
In short: as §1

sigma σ receptor = experiment: Binding assay σ (non-selective), [3H]DTG, rat cerebral cortex; settings: percent inhibition of control specific binding; compounds tested at 1×10^−6 M
In short: as §1

hERG potassium channels [11] = molecular target: T4, hERG potassium channels
Description: as §4, §5, §6

Sequence of histaminergic H1 receptor (P35367 whole entry): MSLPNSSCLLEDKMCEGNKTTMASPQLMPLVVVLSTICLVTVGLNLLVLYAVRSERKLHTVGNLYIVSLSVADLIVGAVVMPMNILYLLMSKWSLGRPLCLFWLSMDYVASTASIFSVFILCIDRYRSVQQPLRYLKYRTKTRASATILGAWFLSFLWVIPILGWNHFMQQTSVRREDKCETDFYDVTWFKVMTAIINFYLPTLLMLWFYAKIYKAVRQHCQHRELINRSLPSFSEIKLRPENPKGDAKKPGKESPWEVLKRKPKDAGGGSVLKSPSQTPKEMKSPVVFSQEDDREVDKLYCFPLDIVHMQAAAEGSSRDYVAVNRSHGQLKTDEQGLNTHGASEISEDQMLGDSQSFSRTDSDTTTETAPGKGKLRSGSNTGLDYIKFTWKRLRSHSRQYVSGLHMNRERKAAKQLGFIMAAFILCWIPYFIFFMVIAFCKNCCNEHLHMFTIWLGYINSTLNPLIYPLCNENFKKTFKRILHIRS

Row | SMILES | inhibition at 1 µM [1] | inhibition at 1 µM [2] | inhibition at 1 µM [3] | inhibition at 1 µM (dopaminergic D2 receptor) | inhibition at 1 µM [4] | hERG [%] (hERG potassium channels [5]) | activation at 1 µM ([6]; agonist effect, percent of control specific agonist response, compounds tested at 1×10^−6M, read-out: 5-HT6-ag [%]) | inhibition at 1 µM [6] | inhibition at 1 µM [7] | inhibition at 1 µM (dopaminergic D3 receptor) | inhibition at 1 µM (adrenergic α2C receptor) | inhibition at 1 µM [8] | inhibition at 1 µM [9] | inhibition at 1 µM [10] | inhibition at 1 µM (muscarinic M3 receptor) | α1 [%] (adrenergic α1 receptor) | σ [%] (sigma σ receptor) | hERG [%] (hERG potassium channels [11]) | activation at 1 µM [9]
1 | O=S(=O)(NCCCCN1CCC(c2noc3cc(F)ccc23)CC1)c1cccc2ccccc12 [Compound 17, N-[4-[4-(6-Fluoro-1,2-benzoxazol-3-yl)piperidin-1-yl]butyl]naphthalene-1-sulphonamide] | 80% | 44% | 84% | 98% | 62% | 24% | 2% | 69% | 99% | 93% | 100% | 99% | 95% | 100% | 7% | – | – | – | –
2 | O=S(=O)(NCCCCN1CCN(c2cccc3[nH]ccc23)CC1)c1ccc(C(F)(F)F)cc1 [Compound 360, N-[4-[4-(1H-Indol-4-yl)piperazin-1-yl]butyl]-4-(trifluoromethyl)benzenesulphonamide] | – | 8% | 83% | 99% | – | 5% | – | – | 67% | 100% | – | 100% | – | 67% | – | 93% | – | – | –
3 | O=S(=O)(NCCCCN1CCN(c2cccc3[nH]ccc23)CC1)c1c[nH]c2ncccc12 [Compound 31, N-{4-[4-(1H-Indol-4-yl)piperazin-1-yl]butyl}-1H-pyrrolo[2,3-b]pyridine-3-sulphonamide] | – | -2% | 82% | 38% | – | 2% | – | – | 18% | 96% | – | 87% | – | 36% | – | 101% | – | – | –
4 | Cc1[nH]c2ccc(Cl)cc2c1C1=CCN(CCCNS(=O)(=O)c2cccc(O)c2)CC1 [Compound 445, N-[3-[4-(5-Chloro-2-methyl-1H-indol-3-yl)-3,6-dihydro-2H-pyridin-1-yl]propyl]-3-hydroxybenzenesulphonamide] | 60% | 68% | 93% | 98% | 67% | – | – | – | 84% | 97% | 69% | 98% | – | 78% | 27% | 50% | 67% | 2% | –
5 | O=S(=O)(NCCCN1CCN(c2nsc3ccccc23)CC1)c1cccc2ccccc12 [Compound 5, N-(3-(4-(1,2-Benzothiazol-3-yl)piperazin-1-yl)propyl)naphthalene-1-sulphonamide] | 92% | 84% | 99% | 96% | 81% | 17% | – | 18% | 84% | 98% | 99% | 98% | 85% | 99% | 7% | 98% | 72% | – | -1%
6 | O=S(=O)(NCCCN1CCN(c2nsc3ccccc23)CC1)c1ccc2ccccc2c1 [Compound 6, N-(3-(4-(1,2-Benzothiazol-3-yl)piperazin-1-yl)propyl)naphthalene-2-sulphonamide] | 93% | 95% | 99% | 96% | 88% | 13% | – | 26% | 88% | 97% | 93% | 98% | 66% | 100% | -1% | 95% | 59% | – | 0%

Source: patent US8822517B2, “Arylosulfonamides for the treatment of CNS diseases” (Adamed SP. Z O.O., priority 2010, dated 2014)
